From BindingDB's records for doi:10.1021/jm030008u (Nida-Irp, 2003) come the findings set out here.

This experiment can be described thus: Binding affinity against Sigma receptor type 1 was determined by the displacement of [3H]pentazocine radioligand. For orientation: In a radioligand displacement assay an active substance lowers the binding of a labelled ligand.

Molecules are shown by their SMILES.

For `C[C@@H]1CN(CCCn2c3ccc(Br)cc3c3cc(Br)ccc32)C[C@@H](C)N1` [3,6-Dibromo-9-[3-(3,5-dimethyl-piperazin-1-yl)-propyl]-9H-carbazole], the Ki amounted to 4420 nM. Turning to `C[C@@H]1CN(CCCn2c3ccccc3c3ccccc32)C[C@@H](C)N1C` [9-[3-(3,4,5-Trimethyl-piperazin-1-yl)-propyl]-9H-carbazole], the inhibition constant (Ki) was 552 nM. For `C[C@@H]1CN(CCCn2c3ccccc3c3cc([N+](=O)[O-])ccc32)C[C@@H](C)N1` [9-[3-(3,5-Dimethyl-piperazin-1-yl)-propyl]-3-nitro-9H-carbazole] the value was 596 nM; for `C[C@@H]1CN(CCCn2c3ccccc3c3cc(N)ccc32)C[C@@H](C)N1` [9-[3-(3,5-Dimethyl-piperazin-1-yl)-propyl]-9H-carbazol-3-ylamine], 5720 nM; for `C[C@@H]1CN(CCCn2c3ccccc3c3ccccc32)C[C@@H](C)N1CCCc1ccccc1` [9-{3-[3,5-Dimethyl-4-(3-phenyl-propyl)-piperazin-1-yl]-propyl}-9H-carbazole], 104 nM. `C[C@@H]1CN(CCCN(c2ccc(F)cc2)c2ccc(F)cc2)C[C@@H](C)N1CCc1ccc(Cl)c(Cl)c1` [(3-{(3R,5R)-4-[2-(3,4-Dichloro-phenyl)-ethyl]-3,5-dimethyl-piperazin-1-yl}-propyl)-bis-(4-fluoro-phenyl)-amine]: the Ki came to 32.5 nM. The molecule `C[C@@H]1CN(CCCN(c2ccccc2)c2ccccc2)C[C@@H](C)N1CCc1ccc(Cl)c(Cl)c1` [(3-{(3R,5R)-4-[2-(3,4-Dichloro-phenyl)-ethyl]-3,5-dimethyl-piperazin-1-yl}-propyl)-diphenyl-amine] displayed a Ki of 29.6 nM.

`Fc1ccc(N(CCCN2CCNCC2)c2ccc(F)cc2)cc1` [Bis-(4-fluoro-phenyl)-(3-piperazin-1-yl-propyl)-amine] showed a Ki of 1390 nM. Turning to `Fc1ccc(N(CCCN2CCN(CCCc3ccccc3)CC2)c2ccc(F)cc2)cc1` [Bis-(4-fluoro-phenyl)-{3-[4-(3-phenyl-propyl)-piperazin-1-yl]-propyl}-amine], the Ki stood at 66.2 nM. `Fc1ccc(N(CCCN2CCN(Cc3ccccc3)CC2)c2ccc(F)cc2)cc1` [N-(3-(4-benzylpiperazin-1-yl)propyl)-4-fluoro-N-(4-fluorophenyl)benzenamine]: the affinity corresponds to a Ki of 13.1 nM. On to `CCN(CC)CCOCCOC(=O)C1(c2ccccc2)CCCC1` [SMR000326757], for which the Ki came out at 19.5 nM. As for `C[C@@H]1CN(CCCN(c2ccc(F)cc2)c2ccc(F)cc2)C[C@@H](C)N1` [[3-((3R,5R)-3,5-Dimethyl-piperazin-1-yl)-propyl]-bis-(4-fluoro-phenyl)-amine], the Ki is 124 nM. With `C[C@@H]1CN(CCCN(c2ccccc2)c2ccccc2)C[C@@H](C)N1` [[3-((3R,5R)-3,5-Dimethyl-piperazin-1-yl)-propyl]-diphenyl-amine], the Ki turned out to be 138 nM. Molecule `C[C@@H]1CN(CCCN(c2ccc(F)cc2)c2ccc(F)cc2)C[C@@H](C)N1CCCc1ccccc1` [{3-[3,5-Dimethyl-4-(3-phenyl-propyl)-piperazin-1-yl]-propyl}-bis-(4-fluoro-phenyl)-amine] yielded a Ki of 11.1 nM. Consider `C[C@@H]1CN(CCCN(c2ccccc2)c2ccccc2)C[C@@H](C)N1CCCc1ccccc1` [{3-[3,5-Dimethyl-4-(3-phenyl-propyl)-piperazin-1-yl]-propyl}-diphenyl-amine], for which affinity was put at a Ki of 97.2 nM.

Broadly, the Ki is a dissociation constant, usually derived from enzyme kinetics or from competition with a known ligand. Read a low Ki as tighter binding.
